Assay results taken from patent publication US8808713B2, “Compositions for pulmonary delivery of long-acting β2 adrenergic receptor agonists and associated methods and systems” (Pearl Thereapeutics, Inc., priority 2009, dated 2014).

Tests used:
[1] = Visual observation of suspension quality / co-suspension in glass vials (settling, centrifugation); type: physicochemical
Protocol: The canisters were crimp sealed with 63 μl valves (# BK 357, Bespak, King's Lynn, UK) and filled with 12.4 g of HFA 134a (1,1,1,2-tetrafluoroethane) (Ineos Fluor, Lyndhurst, UK) by overpressure through the valve stem. After injecting the propellant, the canisters were sonicated for 15 seconds and agitated on a wrist action shaker for 30 minutes. The canisters were fitted with polypropylene actuators with a 0.3 mm orifice (# BK 636, Bespak, King's Lynn, UK). Additional inhalers for visual observation of suspension quality were prepared using glass vials.
The canisters were crimp sealed with 63 μl valves (Valois DF30/63 RCU, Les Vaudreuil, France) and filled with 9.5 mL of HFA 134a (Ineos Fluor, Lyndhurst, UK) by overpressure through the valve stem. After injecting the propellant, the canisters were sonicated for 15 seconds and agitated on a wrist action shaker for 30 minutes. Additional inhalers with suspending particles only were manufactured as control for each configuration.
Metered dose inhalers were prepared by weighing the target masses of micronized active agent particles and suspending particles into coated glass vials with 15 mL volume. […] For each configuration, additional glass bottles were filled with the respective amount of FF active agent particles without any suspending particles. […]

[2] = system: patients with mild to moderate COPD; assay: Multi-center clinical trial, single-dose crossover: spirometry (FEV1) and safety; settings: 18 μg via Spiriva Handihaler

SMILES: COc1ccc(CC(C)NCC(O)c2ccc(O)c(NC=O)c2)cc1.O=C(O)/C=C/C(=O)O (racemic) [FF, (±)-2-hydroxy-5-[(1RS)-1-hydroxy-2-[[(1RS)-2-(4-methoxyphenyl)-1-methylethyl]-amino]ethyl]formanilide fumarate]
- Visual observation: sedimentation of crystalline FF ([1]; glass vials, HFA 134a, left to settle 24 h): sedimented quickly

SMILES: OCc1cc(C(O)CNCCCCCCOCCCCc2ccccc2)ccc1O (stereo not drawn) [SX, 4-hydroxy-α1-[[[6-(4-phenylbutoxy)hexyl]amino]methyl]-1,3-benzenedimethanol, 1-hydroxy-2-naphthalenecarboxylate]
- Visual observation: sedimentation of SX crystals ([1]; glass vials heated up to 30° C.-35° C. in a water bath): sedimented rapidly

SMILES: C[N+]1(C)[C@@H]2C[C@@H](OC(=O)C(O)(c3cccs3)c3cccs3)C[C@H]1[C@@H]1O[C@@H]12 [tiotropium]
- Mean time to ≧10% improvement in FEV1 [2]: approximately 3 hours
